Data published in PMC7037732, “Synthesis of Combretastatin A-4 and 3′-Aminocombretastatin A-4 derivatives with Aminoacid Containing Pendants and Study of their Interaction with Tubulin and as Downregulators of the VEGF, hTERT and c-Myc Gene Expression” (Molecules, 2020).

Tests used:
[1] = system: A-549 (human pulmonary adenocarcinoma); assay: Inhibition of cell proliferation (MTT), A-549; type: cell-based; conditions: 48 h of treatment (footnote), average ±SD of three experiments
Summary of the method: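 Antiproliferative activity against A-549 human pulmonary adenocarcinoma cells was measured by MTT assay. Cells were seeded at 25,000/mL in 96-well plates, cultured 24 h, then exposed to compounds at various concentrations. MTT (20 µL, 5 mg·mL^−1) was added for 2 h at 37 °C, formazan dissolved in 200 µL DMSO, and absorbance read at 540 nm. IC50 values came graphically from three independent experiments.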

[2] = system: HT-29 (human colon adenocarcinoma); assay: Inhibition of cell proliferation (MTT), HT-29; type: cell-based; conditions: Homo sapiens, 48 h of treatment (footnote), average ±SD of three experiments
[3] = system: A-549 cells; assay: Effect on the cellular microtubule network (immunofluorescence); type: cell-based, human
Experimental: The effect on the cellular microtubule network of CA-4 derivatives was studied for compounds 1, 3.7 (L-Thr-OMe), 3.8 (L-Tyr-OMe), 4.2 (L-Val) and 4.3 (L-Leu), which were those accumulating more cells in the G2/M phase. Thus, A-549 cells were incubated for 24 h in the presence of the above compounds and CA-4 at the concentrations indicated in Figure 4.
The effect of some derivatives on the cellular microtubule network were also studied on A-549 cells. The selected compounds were 7.1 (Fmoc-Gly) (0.5 μM), 8.1 (Gly) (2 μM), 8.2 (L-Ala) (3 μM) and 10.1 (D-Val) (40 μM), which were those exerting a higher effect on the cell cycle.
For immunofluorescence microscopy of the microtubule network, 10^6 cells were plated on cover glass and incubated with the different drugs. Cells were then fixed in 3.7% formaldehyde (in PBS pH 7.4) for 20 min at room temperature and permeabilized with PBS-Triton X-100 0.5% for 10 min at room temperature. Direct immunostaining was carried out for 2 h at room temperature with a primary FITC-conjugated anti-α-tubulin antibody (dilution 1:400 in PBS-BSA 1% from a 1 mg/mL solution; monoclonal antibody, clone DM1A; Sigma-Aldrich, Darmstadt, Germany.). Next, cells were incubated for 45 min at room temperature in darkness with secondary Alexa Fluor 488-conjugated antibodies (dilution 1:200 each from 1.5 mg/mL; Molecular Probe, France). Then, cells were washed in PBS and cover glasses were mounted with a drop of ProLong® antifade solution (Invitrogen). The cytoskeleton was imaged by a confocal laser scanning microscope (CLSM) Leica SP5 with a Leica inverted microscope, equipped with a Plan-Apochromat 63× oil immersion objective (NA = 1.4). Each image was recorded with the CLSM’s spectral mode selecting specific domains of the emission spectrum. The FITC fluorophore was excited at 488 nm with an argon laser, and its fluorescence emission was collected between 496 nm and 535 nm.

[4] = system: A-549 cells; assay: Cell cycle distribution by flow cytometry; type: cell-based, human; conditions: A-549, 24 h; for cells accumulated in the G2/M phase: concentration per compound as in Tables 6 and 7, control 14%
Summary of the method: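 A-549 cells were harvested, fixed in cold 70% ethanol (30 min, −20 °C), then stained with 50 µg/mL propidium iodide plus 100 µg/mL RNase A in PBS for 20 min at room temperature in the dark. Flow cytometry used 488 nm excitation and 620 nm emission, giving the percentage of cells in G2/M.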

[5] = system: HEK-293 (human embryonic kidney cells); assay: Inhibition of cell proliferation (MTT), nontumor HEK-293; type: cell-based; conditions: Homo sapiens, 48 h of treatment (footnote), average ±SD of three experiments
[6] = system: MCF-7 (breast adenocarcinoma); assay: Inhibition of cell proliferation (MTT), MCF-7; type: cell-based, human; conditions: Homo sapiens, 48 h of treatment (footnote), average ±SD of three experiments
[7] = system: purified tubulin; assay: Critical concentration (CrC) for the assembly of purified tubulin in GAB; type: biochemical; conditions: compound 27.5 μM, tubulin 25 μM, glycerol (GAB) and GTP assembly buffer; control 7.9 ± 1.2
Experimental: The effect on the self-assembly of tubulin was determined by measuring the critical concentration (CrC).

[8] = system: tubulin; assay: In vitro tubulin polymerization by turbidimetry (It50); type: biochemical; conditions: turbidimetry at 350 nm, 37 °C; control 16.6 ± 1.0
Experimental: Figure 3 also includes polymerization curves in the presence of CA-4, AmCA-4 and paclitaxel. This test was also performed using paclitaxel, a microtubule stabilizing agent, as a control for the complete formation of microtubules (see Figure 3).

[9] = Homo sapiens, A549, 48 h, Table 1

SMILES | IC50 [1, 9] [µM] | IC50 ([2]; HT-29, 48 h, Table 1) [µM] | G0/G1 ([4]; 75 μM) [%] | G2/M ([4]; 75 μM) [%] | S ([4]; 75 μM) [%] | cells accumulated in the G2/M phase [4] | IC50 ([5]; HEK293, 48 h, Table 1) [µM] | IC50 ([6]; MCF7, 48 h, Table 1) [µM] | CrC (critical concentration) [7] [µM] | Effect on the microtubule network ([3]; A-549, 24 h, 50 μM) | other results
COC(=O)[C@H](Cc1ccc(O)cc1)NC(=O)COc1cc(/C=C\c2cc(OC)c(OC)c(OC)c2)ccc1OC [Compound 3.8] | 18 ± 1 | 16 ± 5 | 17 ± 2 | 65 ± 1 | 18 ± 1 | 50–70% | 10 ± 2 | 12 ± 4 | – | – | Effect on the microtubule network ([3]; A-549, 24 h, 75 μM): produce disorganization in the mitotic spindle
COc1ccc(/C=C\c2cc(OC)c(OC)c(OC)c2)cc1OCC(=O)O [Compound 2, (Z)-2-(2-Methoxy-5-(3,4,5-trimethoxystyryl)phenoxy)acetic acid] | 38 ± 5 | – | – | – | – | – | – | – | 12.0 ± 0.7 | – | IC50 ([2]; HT-29, Table 1): 33 ± 6 µM; melting point: 109 to 111 °C; IC50 ([5]; HEK293, Table 1): 12 ± 5 µM; IC50 ([6]; MCF7, Table 1): 11 ± 5 µM
COC(=O)[C@@H](NC(=O)COc1cc(/C=C\c2cc(OC)c(OC)c(OC)c2)ccc1OC)C(C)O (some centres unmarked) [Compound 3.7] | 19 ± 1 | 18 ± 7 | 25 ± 5 | 57 ± 6 | 18 ± 1 | 50–70% | 14 ± 2 | 12 ± 4 | 10 ± 3 | – | Effect on the microtubule network ([3]; A-549, 24 h, 75 μM): produce disorganization in the mitotic spindle
COc1ccc(/C=C\c2cc(OC)c(OC)c(OC)c2)cc1OCC(=O)N[C@@H](CC(C)C)C(=O)O [Compound 4.3] | 14 ± 2 | 15 ± 5 | 22 ± 6 | 63 ± 5 | 15 ± 2 | 50–70% | 9 ± 2 | 16 ± 6 | 8 ± 3 | produce disorganization in the mitotic spindle | –
CCOC(=O)COc1cc(/C=C\c2cc(OC)c(OC)c(OC)c2)ccc1OC [Compound 1, Ethyl (Z)-2-(2-methoxy-5-(3,4,5-trimethoxystyryl)phenoxy)acetate] | < 10 | 7 ± 4 | – | – | – | 50–70% | 3.6 ± 0.5 | 8 ± 4 | – | produce disorganization in the mitotic spindle | IC50 ([1]; Table 1): 9 ± 1 µM; G0/G1 ([4]; 50 μM): 23 ± 5%; G2/M ([4]; 50 μM): 55 ± 8%; S ([4]; 50 μM): 22 ± 4%
COc1ccc(/C=C\c2cc(OC)c(OC)c(OC)c2)cc1NC(=O)[C@H](N)C(C)C [Compound 10.1] | – | – | – | – | – | – | – | – | 12.8 ± 0.3 | – | IC50 ([1]; Homo sapiens, A549, 48 h, Table 2): 9.9 ± 1.3 µM; IC50 ([2]; HT-29, 48 h, Table 2): 4.8 ± 0.6 µM; Effect on the microtubule network ([3]; A-549, 0.5 μM): much less active; Effect on the microtubule network ([3]; A-549, 40 μM): almost total depolymerization of the microtubule network; It50 (time required to reach 50% of the polymerization) [8]: 17.1 ± 1.3 min; G0/G1 ([4]; 40 µM): 26 ± 2%; G2/M ([4]; 40 µM): 60 ± 1%; S ([4]; 40 µM): 14 ± 1%; IC50 ([5]; HEK293, 48 h, Table 2): 2.4 ± 0.3 µM; IC50 ([6]; MCF7, 48 h, Table 2): 4.7 ± 0.7 µM
COc1ccc(/C=C\c2cc(OC)c(OC)c(OC)c2)cc1OCC(=O)N[C@@H](Cc1ccccc1)C(=O)O [Compound 4.4] | 100 ± 20 | – | – | – | – | – | – | – | 11.4 ± 0.7 | produce disorganization in the mitotic spindle | IC50 ([2]; HT-29, Table 1): 54 ± 9 µM; IC50 ([5]; HEK293, Table 1): 47 ± 3 µM; IC50 ([6]; MCF7, Table 1): 45 ± 4 µM
